Reference: US20050124618A1, “Methods of modulating angiogenesis and cancer cell proliferation” (priority 2003, published 2005)
Entries after “also recorded” stand apart in the source; their conditions may differ.

Legend:
SAPK/JNK = test: Western blot of phospho-SAPK/JNK in 9L cells; format: cell-based, rat; conditions: 10 μM HET0016; 4 hr, 24 hr, 48 hr
Experimental: They were then pelleted by centrifugation at 1,000 g for 5 min at 4° C. The cells were lysed by adding RIPA buffer [20 mM HEPES (pH 7.4), 100 mM NaCl, 1% Nonidet P-40, 0.1% SDS, 1% deoxycholic acid, 10% glycerol, 1 mM EDTA, 1 mM NaVO3, 50 mM NaF, and protease inhibitors Set 1 (Calbiochem, La Jolla, Calif.)]. The plates were then scraped and the cells were collected in a 1.5-ml centrifuge tube, followed by incubation on ice for 30 min. The cell homogenates were centrifuged for 10 min at 14,000 g and 4° C.; the pellets were discarded and the protein concentrations in the supernatant determined by bicinchoninic acid (BCA) protein assay.
Typically, 20 μg of protein obtained from the cell homogenates was separated on a 14% Tris-glycine gel (Invitrogen) and transferred to a PVDF membrane (Biotrace, Bothell, Wash.). The membranes were blocked for 1 hr at room temperature with blocking buffer [0.2% I-Block reagent (Tropix, Bedford, Mass.), 0.1% Tween-20 in 1×PBS] and then incubated with the primary antibodies in blocking buffer overnight at 4° C. Phospho-p42/p44 MAPK (T202/Y204)(20G11), and phospho-SAPK/JNK (T183/Y185) (98F2) monoclonal antibodies were purchased from Upstate (Waltham, Mass.). […] Both phospho-p44/p42MAPK and phospho-SAPK/JNK were detected using 1:1000 antibody dilutions. […]

20-HETE = test: Urinary excretion of 20-HETE in rats (fluorescent HPLC assay); format: in vivo, rat; conditions: chronic treatment with HET0016 for 7 days, 1 mg/kg ip twice daily
Source text: The rats were divided in four groups. […] This dose was chosen based on our previous results (Kehl F et al., Am J Physiol Heart Circ Physiol 282: H1556-H1565, 2002).
Measurement of urinary excretion of 20-HETE: On the last day of electrical stimulation, rats were placed in a metabolic cage that efficiently separates urine from food. Just before the start of the urine collection, food was withdrawn to avoid contamination of the urine sample, and the 24-h control and treated urine samples were collected into a glass bottle packed with ice. The concentration of 20-HETE in the urine samples was measured using a fluorescent HPLC assay, as previously described (Maier K G et al., Am J Physiol Heart Circ Physiol 279: H863-H871, 2000). […] Excess dye was removed using Sep-Pak Vac extraction (Maier K G et al., Am J Physiol Heart Circ Physiol 279: H863-H871, 2000), and the samples were dried under argon, resuspended in 100 μl of methanol, and analyzed by reverse-phase HPLC (Waters) using a fluorescence detector (model number L-7480; Hitachi, Naperville, Ill.). The amount of 20-HETE in the sample was determined by comparing the area of the 20-HETE peak with that of the internal standard.

CCCCc1ccc(N=CNO)c(C)c1 [HET0016, N-hydroxy-N′-(4-butyl-2 methylphenyl) formamidine]
phosphorylation of SAPK/JNK (SAPK/JNK): decreases the phosphorylation; also recorded: significantly reduced the phosphorylation; also recorded: inhibition appears to peak at 48 hr
reduction of 24-h urinary 20-HETE excretion compared with the control group (lecithin) (20-HETE): 36%
